From US20240417410A1, “TRICYCLIC COMPOUNDS FOR THE TREATMENT OF CANCER” (Hoffmann-La Roche Inc., priority 2023, published 2024)

Experiments:
AGS cells (KRAS G12D) = experiment: Cell viability assay (Cell Counting Kit-8, 3-day); assay type: cell-based, human; details: Homo sapiens, 72 h, 72 hrs incubation
In short: (§1)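 Cells seeded at 5,000/well (NCI-H358) or 2,000/well (AGS, SW620), treated next day at 0.5% final DMSO for 72 h. Viability read by CCK-8 (OD450 minus OD650) after 2 h; IC50 from 4-parameter sigmoidal fit.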

[1] = tested on: NCI-H358 cells (KRAS G12C); experiment: Cell viability assay (Cell Counting Kit-8, 3-day); assay type: cell-based, human; details: Homo sapiens, NCI-H358, 72 h, NCI-H358, 72 hrs incubation
In short: as §1

SW620 cells (KRAS G12V) = experiment: Cell viability assay (Cell Counting Kit-8, 3-day); assay type: cell-based, human; details: Homo sapiens, SW-620; SW620, 72 hrs incubation
In short: as §1

KRAS G12C-BRAF complex = KRAS G12C-BRAF complex (Homo sapiens (Human), UniProt P01116+P62937, G12C); experiment: KRAS-BRAF with CYPA (500 nM) interaction assay (TR-FRET, Example 136); assay type: biochemical; details: KRAS G12C-BRAF disruption
Sequence of KRAS G12C-BRAF complex (P01116-2 other isoform, or with tags, fused parts or gaps G12C): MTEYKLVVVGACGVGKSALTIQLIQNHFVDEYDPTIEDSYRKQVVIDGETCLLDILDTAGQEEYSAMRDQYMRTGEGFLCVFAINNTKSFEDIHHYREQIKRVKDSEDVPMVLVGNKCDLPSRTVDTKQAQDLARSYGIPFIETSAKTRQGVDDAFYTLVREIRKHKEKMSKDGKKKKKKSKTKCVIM
Sequence of KRAS G12C-BRAF complex (P62937 whole entry): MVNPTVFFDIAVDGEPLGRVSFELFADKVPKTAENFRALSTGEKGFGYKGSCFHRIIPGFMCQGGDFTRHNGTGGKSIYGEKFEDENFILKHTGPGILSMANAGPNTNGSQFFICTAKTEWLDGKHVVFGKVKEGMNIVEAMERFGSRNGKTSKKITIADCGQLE

[2] = tested on: phosphorylation of ERK, KRAS G12C in NCI-H358 cells; experiment: pERK inhibition assay; assay type: cell-based; details: Homo sapiens, NCI-H358, 4 h
In short: (§2)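 Phospho-ERK quantified by in-cell ELISA with TMB read-out at OD450 following 4 h compound exposure (final 0.5% DMSO). Cell lines were SW620 (KRAS G12V), AGS (G12D) and NCI-H358 (G12C), grown in RPMI-1640 with 10% FBS. A 4-parameter sigmoidal model gave the IC50.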

[3] = tested on: phosphorylation of ERK, KRAS G12D in AGS cells; experiment: pERK inhibition assay; assay type: cell-based; details: Homo sapiens, AGS, 4 h
In short: as §2

[4] = tested on: phosphorylation of ERK, KRAS G12V in SW620; experiment: pERK inhibition assay; assay type: cell-based; details: Homo sapiens, SW-620, 4 h, SW620 cells
In short: as §2

| Compound | IC50 (AGS cells (KRAS G12D)) [nM] | IC50 [1] [nM] | IC50 (SW620 cells (KRAS G12V)) [nM] | IC50 (KRAS G12C-BRAF complex) [nM] | IC50 [2] [nM] | IC50 [3] [nM] | IC50 [4] [nM] |
| --- | --- | --- | --- | --- | --- | --- | --- |
| CO[C@@H](C)c1ncc(N2CCN3CCCC[C@@H]3C2)cc1-c1c2c3cc(cc4c3n1CCC4)-c1csc(n1)C[C@H](NC(=O)[C@H]1C[C@@H]1C)C(=O)N1CCC[C@H](N1)C(=O)OCC(C)(C)C2 (atropisomer, axis not shown; (M)) [Example 49, (1S,2S)-N-[(7S,13S)-(20M)-20-[5-[(9αR)-1,3,4,6,7,8,9,9a-octahydropyrido[1,2-a]pyrazin-2-yl]-2-[(1S)-1-methoxyethyl]-3-pyridyl]-17,17-dimethyl-8,14-dioxo-15-oxa-4-thia-9,21,30,31-tetrazahexacyclo[23.3.1.1^2,5.1^9,13.0^19,27.0^21,26]hentriaconta-1 (28),2,5 (31), 19,25 (29),26-hexaen-7-yl]-2-methyl-cyclopropanecarboxamide] | 29.1 | 9.7 | 1.7 | 17.5 | 2.4 | 13.7 | 1.3 |
| CO[C@@H](C)c1ncc(N2CCN3CCOC[C@@H]3C2)cc1-c1c2c3cc(cc4c3n1CCC4)-c1csc(n1)C[C@H](NC(=O)[C@H]1C[C@@H]1C)C(=O)N1CCC[C@H](N1)C(=O)OCC(C)(C)C2 (atropisomer, axis not shown; (M)) [Example 25, (1S,2S)-N-[(7S,13S)-(20M)-20-[5-[(9αS)-3,4,6,7,9,9a-hexahydro-1H-pyrazino[2,1-c][1,4]oxazin-8-yl]-2-[(1S)-1-methoxyethyl]-3-pyridyl]-17,17-dimethyl-8,14-dioxo-15-oxa-4-thia-9,21,30,31-tetrazahexacyclo[23.3.1.1^2,5.1^9,13.0^19,27.0^21,26]hentriaconta-1 (28),2,5 (31),19,25 (29),26-hexaen-7-yl]-2-methyl-cyclopropanecarboxamide] | 32.6 | 6.7 | 1.8 | 32.6 | 1 | 11.3 | 0.8 |
| CO[C@@H](C)c1ncc(N2CCN3CCOC[C@@H]3C2)cc1-c1c2c3cc(cc4c3n1CCC4)-c1csc(n1)C[C@H](NC(=O)[C@H]1C[C@@H]1c1cccnc1)C(=O)N1CCC[C@H](N1)C(=O)OCC(C)(C)C2 (atropisomer, axis not shown; (M)) [Example 104, (1S,2S)-N-[(7S,13S)-(20M)-20-[5-[(9αS)-3,4,6,7,9,9a-hexahydro-1H-pyrazino[2,1-c][1,4]oxazin-8-yl]-2-[(1S)-1-methoxyethyl]-3-pyridyl]-17,17-dimethyl-8,14-dioxo-15-oxa-4-thia-9,21,30,31-tetrazahexacyclo[23.3.1.1^2,5.1^9,13.0^19,27.0^21,26]hentriaconta-1 (28),2,5 (31),19,25 (29),26-hexaen-7-yl]-2-(3-pyridyl)cyclopropanecarboxamide] | 3.8 | 0.8 | 0.2 | 9.8 | 1 | 1.6 | 0.4 |
| CO[C@@H](C)c1ncc(N2CCN(C)CC2)cc1-c1c2c3cc(cc4c3n1CCO4)-c1csc(n1)C[C@H](NC(=O)[C@@H]1[C@@H]3COC[C@@H]31)C(=O)N1CCC[C@H](N1)C(=O)OCC(C)(C)C2 (atropisomer, axis not shown; (M)) [Example 52, (1R,5S,6s)-N-[(7S,13S)-(20M)-20-[2-[(1S)-1-methoxyethyl]-5-(4-methylpiperazin-1-yl)-3-pyridyl]-17,17-dimethyl-8,14-dioxo-15,24-dioxa-4-thia-9,21,30,31-tetrazahexacyclo[23.3.1.1^2,5.1^9,13.0^19,27.0^21,26]hentriaconta-1 (28),2,5 (31), 19,25 (29),26-hexaen-7-yl]-3-oxabicyclo[3.1.0]hexane-6-carboxamide] | 12 | 7 | 1.1 | 16.1 | 1.4 | 5.1 | 0.7 |
| CO[C@@H](C)c1ncc(N2CCOCC2)cc1-c1c2c3cc(cc4c3n1CCO4)-c1csc(n1)C[C@H](NC(=O)[C@H]1[C@@H]3COC[C@@H]31)C(=O)N1CCC[C@H](N1)C(=O)OCC(C)(C)C2 (atropisomer, axis not shown; (M)) [Example 10, (1S,5R,6r)-N-[(7S,13S)-(20M)-20-[2-[(1S)-1-methoxyethyl]-5-morpholino-3-pyridyl]-17,17-dimethyl-8,14-dioxo-15,24-dioxa-4-thia-9,21,30,31-tetrazahexacyclo[23.3.1.1^2,5.1^9,13.0^19,27.0^21,26]hentriaconta-1 (28),2,5 (31), 19,25 (29),26-hexaen-7-yl]-3-oxabicyclo[3.1.0]hexane-6-carboxamide] | 4.6 | 2.2 | < 0.6 | 5.9 | 3.3 | 1.4 | 1.2 |
| CO[C@@H](C)c1ncc(N2CCN(C)CC2)cc1-c1c2c3cc(cc4c3n1CCC4)-c1csc(n1)C[C@H](NC(=O)[C@H]1C[C@@H]1c1ccncn1)C(=O)N1CCC[C@H](N1)C(=O)OCC(C)(C)C2 (atropisomer, axis not shown; (M)) [Example 50, (1S,2S)-N-[(7S,13S)-(20M)-20-[2-[(1S)-1-methoxyethyl]-5-(4-methylpiperazin-1-yl)-3-pyridyl]-17,17-dimethyl-8,14-dioxo-15-oxa-4-thia-9,21,30,31-tetrazahexacyclo[23.3.1.1^2,5.1^9,13.0^19,27.0^21,26]hentriaconta-1 (28),2,5 (31), 19,25 (29),26-hexaen-7-yl]-2-pyrimidin-4-yl-cyclopropanecarboxamide] | 72.6 | 24.1 | 3.8 | 22 | 3.5 | 20.1 | 2.4 |
| CO[C@@H](C)c1ncc(N2CCOCC2)cc1-c1c2c3cc(cc4c3n1CCO4)-c1csc(n1)C[C@H](NC(=O)[C@H]1C[C@@H]1c1cncnc1)C(=O)N1CCC[C@H](N1)C(=O)OCC(C)(C)C2 (atropisomer, axis not shown; (M)) [Example 88, (1S,2S)-N-[(7S,13S)-(20M)-20-[2-[(1S)-1-methoxyethyl]-5-morpholino-3-pyridyl]-17,17-dimethyl-8,14-dioxo-15,24-dioxa-4-thia-9,21,30,31-tetrazahexacyclo[23.3.1.1^2,5.1^9,13.0^19,27.0^21,26]hentriaconta-1 (28),2,5 (31), 19,25 (29),26-hexaen-7-yl]-2-pyrimidin-5-yl-cyclopropanecarboxamide] | 4 | 2 | 0.4 | 9.7 | 0.3 | 1.4 | 0.2 |
| CO[C@@H](C)c1ncc(N2CCN(C)CC2)cc1-c1c2c3cc(cc4c3n1CCO4)-c1csc(n1)C[C@H](NC(=O)[C@@H]1C[C@H]1C1CC1)C(=O)N1CCC[C@H](N1)C(=O)OCC(C)(C)C2 (atropisomer, axis not shown; (M)) [Example 64, (1R,2S)-2-cyclopropyl-N-[(7S,13S)-(20M)-20-[2-[(1S)-1-methoxyethyl]-5-(4-methylpiperazin-1-yl)-3-pyridyl]-17,17-dimethyl-8,14-dioxo-15,24-dioxa-4-thia-9,21,30,31-tetrazahexacyclo[23.3.1.1^2,5.1^9,13.0^19,27.0^21,26]hentriaconta-1 (29),2,5 (31), 19,25,27-hexaen-7-yl]cyclopropanecarboxamide] | 21.9 | 8 | 1.3 | 17.2 | 1.2 | 3.7 | 0.6 |
| CO[C@@H](C)c1ncc(N2CCN(C)CC2)cc1-c1c2c3cc(cc4c3n1CCC4)-c1csc(n1)C[C@H](NC(=O)[C@H]1C[C@@H]1c1cncnc1)C(=O)N1CCC[C@H](N1)C(=O)OCC(C)(C)C2 (atropisomer, axis not shown; (M)) [Example 47, (1S,2S)-N-[(7S,13S)-(20M)-20-[2-[(1S)-1-methoxyethyl]-5-(4-methylpiperazin-1-yl)-3-pyridyl]-17,17-dimethyl-8,14-dioxo-15-oxa-4-thia-9,21,30,31-tetrazahexacyclo[23.3.1.1^2,5.1^9,13.0^19,27.0^21,26]hentriaconta-1 (28),2,5 (31), 19,25 (29),26-hexaen-7-yl]-2-pyrimidin-5-yl-cyclopropanecarboxamide] | 10.2 | 2.5 | 0.9 | 21.2 | 1.2 | 4.8 | 1.4 |
